Results reported in a melting point compilation (Tetko et al.; mined from patent text by program, amines drawn as free bases though some values may be those of a salt).

Row | Compound | melting point
1 | CC(C)C=CC(CC1CCCCC1)NC(=O)OC(C)(C)C (racemic) | 74 °C
2 | CCOC(=O)C=CC=Cc1cccc2cncn12 | 101 to 103 °C
3 | CCCCCCCCCCCCCCOc1ccc(CC(=O)Cl)cc1OC | 56 to 57 °C
4 | CCCCOC(=O)c1ccc(OC(=O)c2ccc(C(=O)Oc3ccc(C(=O)OCCCC)cc3)cc2)cc1 | 128 to 131 °C
5 | CC(=O)OC1CN=C(C)NC1 (centres undefined) | 141 to 146 °C
6 | CCC(C)N(C)C(=O)c1cc(-c2ccccc2Cl)c2sccc2c1 (centres undefined) | 98 °C
7 | CCOC(=O)c1ncn(-c2ccc(Cl)c(Cl)c2)c1C | 163 to 164 °C
8 | COc1ccc2c(c1O)COCc1cc(OC)c(OC)c(OC)c1-2 | 145 to 147 °C
9 | CCCOc1c(OCc2ccccc2)cc(C2CCC(c3cc(OC)c(OC)c(OC)c3)O2)cc1S(=O)(=O)CC(C)O (centres undefined) | 103 to 110 °C
10 | CN(C)c1cccc(-c2nc3c(N[C@H]4[C@@H](C(N)=O)[C@@H]5C=C[C@H]4C5)c(Br)cnc3[nH]2)c1 | 220 to 221 °C
11 | CS(=O)Cc1cccc(-c2nc(=O)c3ccccc3s2)n1 (centres undefined) | 184 to 186 °C
12 | CN(C)C(=S)C(O)c1ccccc1C(F)(F)F (centres undefined) | 112 to 115 °C
13 | CN1Cc2c(-c3noc(C4CC4)n3)ncn2-c2ccccc2C1=O | 179 to 181 °C
14 | COc1cc(C(O)c2ccc3ccccc3c2)ccc1OCc1ccccc1 (centres undefined) | 113 to 114 °C
15 | Cc1cn([C@H]2CC(N=[N+]=[N-])[C@@H](COC(=O)C(C)(C)CC(=O)N[C@@H](Cc3ccccc3)[C@H](O)C(=O)N3CSC(C)(C)[C@H]3C(=O)NC(C)(C)C)O2)c(=O)[nH]c1=O (some centres undefined) | 95 to 97 °C
16 | O=C1NC(c2ccccc2)C2=C1N=C1N=CNN1C2 (centres undefined) | 262 to 264 °C
17 | Cc1nc(-c2ccc([C@H]3CN(c4nc(-c5ccncn5)cc(=O)n4C)CCO3)cc2)no1 | 191 °C
18 | O=C1c2cccc(SCc3ccccc3)c2C(=O)c2cccc(SCc3ccccc3)c21 | 281 to 282 °C
19 | CS(=O)(=O)c1ccc(-c2sc(-c3cccs3)nc2-c2ccc(F)cc2)cc1 | 194 to 195 °C
20 | O=C(O)[C@@H]1C[C@@H](O)CN1S(=O)(=O)c1ccc2ccccc2c1 | 140 °C
21 | COC(=O)C1(NC(=O)Cc2cc(-c3ccc(F)cc3)ccc2C)CCC(F)(F)CC1 | 187 °C
22 | CCn1cc(C(=O)O)c(=O)c2c(F)c(F)c(N3CCNC(c4ccsc4)C3)c(F)c21 (centres undefined) | 221 to 222 °C
23 | CCCc1c(OCC2Cc3c(ccc(C(C)=O)c3O)O2)ccc(C(C)=O)c1O (centres undefined) | 104 to 106 °C
24 | [N-]=[N+]=NCCc1cccc2[nH]cc(S(=O)(=O)c3cccc(F)c3)c12 | 136 to 138 °C
25 | Cc1ccc(C#CC2(O)CN3CCC2CC3)nc1 (centres undefined) | 176 to 180 °C

Row | Compound | melting point
26 | CS(=O)(=O)c1ccc(/C(=C\C2CCCCC2)C(=O)O)cc1[N+](=O)[O-] | 244 to 247 °C
27 | C#CC1(O)CCC2(C)C(CCC3C2CCC2(C)C(C(C)=O)CCC32)C1 (centres undefined) | 196 to 197 °C
28 | COc1ccc(/C(=C/c2ccncc2)c2ccco2)cc1OC1CCCC1 | 122 to 123 °C
29 | Cc1ccc(F)cc1C(C)(C)CC(O)(Cn1ccc(=O)c2sccc21)C(F)(F)F (centres undefined) | 175 to 176 °C
30 | O=c1sc2ccccc2n1Cc1nc2ccccc2n1-c1ccccc1 | 196 to 198 °C
31 | CC(C)n1nc(-c2nc(N)cnc2-c2ccccc2)ccc1=O | 214 to 217 °C
32 | COc1ccc(CC[C@H]2CN(Cc3ccccc3)CCN2Cc2ccccc2)cc1 | 88 to 91 °C
33 | CCOc1nn(Cc2ccc(Cl)cc2Cl)cc1CCCOc1nn(-c2ccccc2)cc1CCC(=O)O | 114 to 118 °C
34 | CCCn1cncc1-c1ccc(O)cc1 | 160 °C
35 | CCCOc1ccc(-c2ccc(=O)[nH]n2)cc1OC | 186 °C
36 | CCOC(=O)C(=O)C(C#N)c1ccc(Br)cc1 (centres undefined) | 146 °C
37 | Cc1c(-c2ccc(OCC(=O)O)cc2)oc(=O)c(Sc2ccccc2)c1O | 194 to 197 °C
38 | COc1cc2c(cc1Nc1ncc(Cl)c(N[C@@H]3CCCC[C@H]3NS(C)(=O)=O)n1)CCN(CC(=O)N(C)C)CC2 | 92 to 97 °C
39 | CCCCCCCCCCCCCCCCCCC1(CO)OC(n2cccnc2=O)C(O)C1O (centres undefined) | 159 °C
40 | CC(=O)CCCN1CCC(NC(=O)c2cc(Cl)c(N)c3c2OC(C)(C)C3)CC1 | 119 °C
41 | COC(=O)c1ccc2c(c1)[C@@H](N1CCCC1=O)[C@H](O)C(C)(C)O2 (relative stereo) | 190 to 192 °C
42 | Cc1csc(C(=O)C2C(=O)N(C(N)=O)c3ccc(Cl)nc32)c1 (centres undefined) | 227 to 228 °C
43 | Cc1nc(-c2ccc(C(F)(F)F)cc2)oc1Sc1ccc(Cc2nn[nH]n2)cc1 | 214 °C
44 | O=C(Nc1ccc(Br)c(Br)c1[N+](=O)[O-])C(F)(F)F | 107 to 109 °C
45 | Cn1c(-c2ccc(C(=O)O)cc2)cc2cc3c(cc21)C(C)(C)CCC3(C)C | 288 to 289 °C
46 | COC(=O)c1ccc2oc3c(c(=O)c2c1)CCC3=Cc1cccc(C)n1 | 200 to 202 °C
47 | CNn1cccc1C(=O)c1ccccc1Cl | 56 to 58 °C
48 | Cc1ccc(N(C)S(=O)(=O)c2cccs2)c2[nH]c(-c3ncc(CO)s3)cc12 | 184 to 185 °C
49 | CCC(=CC(CNC(=O)c1cnccn1)=NO)C(C)[N+](=O)[O-] (centres undefined) | 120 to 121 °C
